One assay relates to pVSV-luc. The experiment in a line: microbe, parasite or virus in culture. The class given is cell-based, Vesicular stomatitis virus. Conditions: for EC50: Vesicular stomatitis virus.
In another assay the test system is JEV. Briefly: Dose-response EC50, JEV. Conditions: Japanese encephalitis virus. It is filed as cell-based.
Another assay concerns LCMV-ARM. The class given is cell-based, Lymphocytic Choriomeningitis Virus.
The subject of a further assay is CHIKV S27. The class given is cell-based, Chikungunya virus.

Read-outs that look alike come from different tables or passages of the source.

By EC50 is commonly meant the concentration at which the effect is half-maximal.

On to `CN(C(=O)Cc1sccc1F)c1nc2c(s1)CCCC2` [ML416, 2-(3-fluorothiophen-2-yl)-N-methyl-N-(4,5,6,7-tetrahydro-1,3-benzothiazol-2-yl)acetamide], for which, in the assay on pVSV-luc, the antiviral effect entry is listed as “moderate effect”. For the same molecule, the EC50 in the assay with pVSV-luc is 190 nM; in the assay with pVSV-luc (BHK, read-out: EC50 pVSV-Gp), 8260 nM; in the assay with pVSV-luc (HEK-293T, read-out: EC50 pVSV-Gp) it was 170 nM; with pVSV-luc (N2a, read-out: EC50 pVSV-Gp) it was > 50000 nM; in the assay on pVSV-luc (NIH3T3, read-out: EC50 pVSV-Gp), > 50000 nM; in the assay on pVSV-luc (in Mus musculus), > 50000 nM. For the same molecule, the half-maximal effective concentration (EC50) in the assay on pVSV-luc (read-out: EC50 pVSV-Gp) was 3820 nM; in the assay with pVSV-luc (read-out: EC50 values range), 150 to 680 nM; in the assay with JEV it was 1900 nM; in the assay with JEV (Vero 76, JEV, Vero76, MOI 0.05, Table 3, read-out: EC50) it was 1900 nM. The “Log titer inhibition at 5 μM” value is reported as −3.466 Log with LCMV-ARM and −4.024 Log in the assay with CHIKV S27 (5 μM). In addition, the “Log reduction in progeny virus titers” value in the assay on LCMV-ARM (5 μM) is listed as “greater than 3 Log”. For the same molecule, the “reduction of CHIKV viral titer in vitro” value in the assay on CHIKV S27 came to 4 log.

Values taken from patent US20180086749A1, “INHIBITORS OF VIRUSES” (priority 2015, published 2018).
